Our source for the melting point and inhibition values is US6924304B2, “Cell proliferation inhibitors” (Abbott Laboratories, priority 1999, dated 2005).

The subject of series [1] is human lung large cell carcinoma, MDR negative (NCI-H460) cells. The series can be described thus: 48-hour cellular proliferation assay (sulforhodamine staining), NCI-H460 cells. It counts as cell-based. Particulars: Homo sapiens, 10^−4 M compound, read-out: NCI-460 % inhibition at 10^−4 M. As for the experimental part:
(§1) Compounds of this invention were tested in a 48-hour cellular proliferation assay which uses human colon adenocarcinoma, MDR positive (HCT-15) cells, and human lung large cell carcinoma, MDR negative (NCI-H460) cells, in the 96-well microtitre format described in Skehan P., et al. New Colorimetric Cytotoxicity Assay for Anticancer Drug Screening. 1990, J. Natl. Cancer Inst. 82:1107-1112, hereby incorporated by reference. Briefly, the wells of a microtitre plate were charged sequentially with cultured cells and compounds of the invention (1.0×10^−4 to 1.0×10^−11 M in 10% DMSO prepared by dissolving compounds of the invention in DMSO and adding 11 μL of the DMSO solution to 100 μL of culture medium for a final DMSO concentration of 10%). Two of the following controls were also present in each microtitre plate: a solvent (DMSO) control without drug that yielded a 0% inhibition level and a trichloroacetic acid-treated well that yielded a 100% inhibition level. The cells were grown in culture (37° C., 5% CO2 atmosphere) for 48 hours then fixed by the addition of trichloroacetic acid. The wells were stained with sulforhodamine, washed with 1% acetic acid, and treated with 0.01 M tris buffer (100 μL) to solubilize the adherent dye. The absorbance of the dye solution was measured with a Molecular Devices SpectraMax340 plate reader. The percent inhibition values were obtained by calculating the proportional response of the experimental values to the absorbance values of the controls.

Series [2] relates to human colon adenocarcinoma, MDR positive (HCT-15) cells. The series can be described thus: 48-hour cellular proliferation assay (sulforhodamine staining), HCT-15 cells. The class given is cell-based. As to conditions: Homo sapiens, 10^−4 M compound, HCT-15 cells (MDR positive). As for the experimental part:
as §1

SMILES strings stand for the structures. Structures can show the parent of a compound that is named as a salt.

The melting point is the temperature of the solid-liquid transition. Regarding `COc1cc(N(C(=O)CN(C)C)S(=O)(=O)c2ccc3c(ccn3C)c2)cc(OC)c1OC` (as salt: salt) [Example 67, N-((dimethylamino)acetyl)-1-methyl-N-(3,4,5-trimethoxyphenyl)-1H-indole-5-sulfonamide], the melting point fell in the range of 200 to 203 °C.

In general, inhibition refers to the drop in the measured response relative to a control, in per cent. Turning to `COc1cc(OS(=O)(=O)c2ccc(N(C)C)cc2)cc(OC)c1OC` [Example 44, (3,4,5-trimethoxyphenyl)-4-(dimethylamino)benzenesulfonate], the inhibition at 100 µM in series [1] turned out to be 99.9%; in series [2], 100%.

Regarding `COc1cc(S(=O)(=O)Oc2ccc(C)cc2)cc(OC)c1OC` [Example 45, 4-methylphenyl 3,4,5-trimethoxybenzenesulfonate], the figures for the inhibition at 100 µM in series [1] and in series [2] were 99.4% and 99.9%, respectively.

Turning to `COc1cc(OS(=O)(=O)c2ccc3c(c2)CCN3C)cc(OC)c1OC` [Example 46, 3,4,5-trimethoxyphenyl 1-methyl-5-indolinesulfonate], the inhibition at 100 µM in series [1] was 99.5%; in series [2], 99.6%.

Consider `COc1ccc(OS(=O)(=O)c2cc(OC)c(OC)c(OC)c2)cc1` [Example 47, 4-methoxyphenyl 3,4,5-trimethoxybenzenesulfonate], for which the inhibition at 100 µM stood at 99.9% in series [1] and 100% in series [2].

`COc1cc(N(C(=O)[C@@H](N)Cc2cnc[nH]2)S(=O)(=O)c2ccc3c(ccn3C)c2)cc(OC)c1OC` [Example 76, N-((2S)-2-amino-3-(1H-imidazol-5-yl)propanoyl)-1-methyl-N-(3,4,5-trimethoxyphenyl)-1H-indole-5-sulfonamide]: the melting point is 175 to 177 °C.

For `COc1ccc(CSc2cc(OC)c(OC)c(OC)c2)cc1` [Example 85, 1,2,3-trimethoxy-5-((4-methoxybenzyl)sulfanyl)benzene], the melting point was in the range of 65 to 67 °C. Further, the inhibition at 100 µM in series [1] was 99.6%. For the same compound, at 100 µM the inhibition in series [2] was 99.8%.

Regarding `COc1ccc(C[S+]([O-])c2cc(OC)c(OC)c(OC)c2)cc1` (stereo not shown) [Example 86, 1,2,3-trimethoxy-5-((4-methoxybenzyl)sulfinyl)benzene], the melting point was in the range of 103 to 105 °C. Moreover, the inhibition at 100 µM in series [1] was determined as 96.5%. The compound also gave an inhibition at 100 µM in series [2] of 99.4%.

Turning to `COc1ccc(CS(=O)(=O)c2cc(OC)c(OC)c(OC)c2)cc1` [Example 87, 1,2,3-trimethoxy-5-((4-methoxybenzyl)sulfonyl)benzene], the melting point lay within 95 to 97 °C. For the same compound, the inhibition at 100 µM in series [1] came to 99.6%. Further, 100 µM produced 99.9% inhibition in series [2].

On to `COc1ccc(C(C)(C)S(=O)(=O)c2cc(OC)c(OC)c(OC)c2)cc1` [Example 88, 1,2,3-trimethoxy-5-((1-(4-methoxyphenyl)-1-methylethyl)sulfonyl)benzene], for which the results for the inhibition at 100 µM in series [1] and in series [2] were 58.4% and 85.5%, respectively.

Turning to `COc1ccc(CSc2cc(OC)c(OC)c(OC)c2)cc1N` [Example 89, 2-methoxy-5-(((3,4,5-trimethoxyphenyl)sulfanyl)methyl)aniline], the inhibition at 100 µM in series [1] and in series [2] was 99.9% each time.

As to `COc1ccc(C[S+]([O-])c2cc(OC)c(OC)c(OC)c2)cc1N` (stereo not shown) [Example 90, 2-methoxy-5-(((3,4,5-trimethoxyphenyl)sulfinyl)methyl)aniline], the values for the inhibition at 100 µM in series [1] and in series [2] were 99.8% and 99.5%, respectively.

Turning to `COc1ccc(CS(=O)(=O)c2cc(OC)c(OC)c(OC)c2)cc1N` [Example 91, 2-methoxy-5-(((3,4,5-trimethoxyphenyl)sulfonyl)methyl)aniline], the inhibition at 100 µM was 99.8% in series [1] and 95% in series [2].

For the compound `COc1ccc(C(C)(C)S(=O)(=O)c2cc(OC)c(OC)c(OC)c2)cc1N` [Example 92, 2-methoxy-5-(1-methyl-1-((3,4,5-trimethoxyphenyl)sulfonyl)ethyl)aniline], the inhibition at 100 µM in series [1] is 9.1%; in series [2], 67.1%.

In the case of `COc1ccc(SCc2cc(OC)c(OC)c(OC)c2)cc1` [Example 93, 1,2,3-trimethoxy-5-(((4-methoxyphenyl)sulfanyl)methyl)benzene], the inhibition at 100 µM was determined as 98.6% in series [1] and 99.9% in series [2].

For the compound `COc1ccc(S(=O)(=O)Cc2cc(OC)c(OC)c(OC)c2)cc1` [Example 94, 1,2,3-trimethoxy-5-(((4-methoxyphenyl)sulfonyl)methyl)benzene], the inhibition at 100 µM in series [1] came out at 90.1%; in series [2], 97.7%.

Turning to `COc1ccc(S(=O)(=O)C(C)(C)c2cc(OC)c(OC)c(OC)c2)cc1` [Example 95, 1,2,3-trimethoxy-5-(1-((4-methoxyphenyl)sulfonyl)-1-methylethyl)benzene], the inhibition at 100 µM in series [1] turned out to be 9.1%; in series [2], 84.8%.

For the compound `COc1ccc(S(=O)(=O)Cc2cc(OC)c(OC)c(OC)c2)cc1N` [Example 96, 2-methoxy-5-((3,4,5-trimethoxybenzyl)sulfonyl)aniline], the values for the inhibition at 100 µM in series [1] and in series [2] were 99.9% and 99.8%, respectively.
